Data taken from patent US20220397580A1, “METHOD OF DETECTING A NEURODEGENERATIVE DISEASE” (NATIONAL UNIVERSITY OF SINGAPORE, priority 2019, published 2022).

Test system: exosomes derived from neuronal cells (SH-SY5Y)
Test: Exosome-Aβ association kinetics on APEX (SPR) sensor functionalized with protein aggregates
Assay type: binding, Human
Conditions: relative to BSA controls
Experimental: Characterization of exosome-A13 association. The prepared protein aggregates (Aβ42 and BSA control) were used for surface functionalization onto the APEX sensors, via EDC/NHS coupling as previously described. Unbound protein aggregates were washed away with PBS. The amount of protein conjugated was measured from the resultant transmission spectral shifts. This information was used to determine the number of conjugated protein aggregates and their associated total protein surface area for exosome binding (see below for detailed information), so as to normalize for binding affinities. Following surface functionalization with the protein aggregates, exosomes ([…]) were introduced onto the sensors. Spectral changes were measured every 3 s for a total duration of 480 s to construct real-time kinetics sensorgrams. Exosome association kinetics and binding affinities were determined for different-sized protein aggregates.
To account for protein aggregate size differences as well as SPR-associated exponential decay of sensitivity (with increasing distance from the sensing surface), the following equation was used
S=E×∫0^2rπ[r^2−(r−z)^2]×e^(−2z/l^d^)dz […]
All protein aggregates were approximated as spheres, as supported by transmission electron micrographs (FIG. 3b, left) and their r determined from dynamic light scattering analysis. […]

bigger Aβ42 aggregates: Aβ42 protein (rPeptide) incubated with agitation for 1 h to induce further aggregation, filtered through 0.2-μm membrane
KD(small)/KD(big) (exosome binding data normalized to aggregate surface area): 5.27
binding affinity of the vesicles compared to the smaller Aβ42 aggregates (neuron-derived exosomes, normalized to aggregate surface area): > 5 fold
